Test results reported in patent publication US8912216B2, “Hetaryl-[1,8]naphthyridine derivatives” (Merck Patent GmbH, priority 2010, dated 2014).
pIC50: −log10 of the molar value.

Legend:
GST-ALK5 = target: T1, GST-ALK5 (Homo sapiens, UniProt P36897); assay: In-vitro (enzyme) kinase assay, 384-well flashplate (Example 36); assay type: biochemical; conditions: GST-ALK5, GST-SMAD2 substrate, 3 mM ATP, 30° C., 45 min; read-out: TβR activity (Example 36)
T1 sequence (P36897 34-503): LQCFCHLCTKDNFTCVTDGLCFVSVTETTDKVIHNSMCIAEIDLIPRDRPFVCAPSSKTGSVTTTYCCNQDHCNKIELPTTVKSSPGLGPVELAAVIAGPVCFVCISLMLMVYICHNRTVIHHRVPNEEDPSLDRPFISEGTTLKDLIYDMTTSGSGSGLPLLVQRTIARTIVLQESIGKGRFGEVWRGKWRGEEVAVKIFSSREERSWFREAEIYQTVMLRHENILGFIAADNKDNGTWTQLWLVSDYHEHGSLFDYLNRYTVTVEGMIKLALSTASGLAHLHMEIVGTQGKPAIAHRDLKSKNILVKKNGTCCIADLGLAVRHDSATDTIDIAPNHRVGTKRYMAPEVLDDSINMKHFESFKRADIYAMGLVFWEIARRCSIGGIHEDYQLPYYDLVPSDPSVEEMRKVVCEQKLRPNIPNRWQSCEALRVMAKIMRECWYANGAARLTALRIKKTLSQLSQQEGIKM
Outline: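 Radiometric flashplate assay: 31.2 nM GST-ALK5 phosphorylating 439 nM GST-SMAD2 with 3 mM ATP plus ³³P-ATP, in HEPES/MgCl2/MnCl2/DTT/BSA buffer pH 7.4, 45 min at 30 °C, 5-10 compound concentrations. EDTA stop, filtration and washing, then radioactivity counted; IC50 derived from the curve.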

[1] = tested on: TGF-beta-induced phosphorylation of Smad2 and Smad3 in Mv1-Lu cells; assay: Inhibition of Smad2/3 phosphorylation in Mv1Lu cells (Example 35A); assay type: cell-based, mink Mustela vison; conditions: Neogale vison, Mv1-Lu cells, TGF-beta 1 5 ng/ml, phospho-Smad2/3 ELISA, read-out: TβR activity (Example 35A)
Outline: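 Serum-starved (16-20 h) Mv1-Lu mink lung epithelial cells were pre-incubated 1.5 h with compound dilutions (0.2% DMSO), then stimulated 1 h with 5 ng/ml TGF-beta 1. Phospho-Smad2 (Ser465/467)/Smad3 (Ser423/425) in lysates was measured by ELISA. IC50 came from dose-response fits between stimulated and unstimulated controls.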

| SMILES | pIC50 (GST-ALK5) | pIC50 [1] |
| --- | --- | --- |
| Cn1ccc2cc(-c3cncc(-c4cc(-c5cc(Cl)ccc5F)nc5ncccc45)c3)ccc21 [compound 150, 2-(5-Chloro-2-fluoro-phenyl)-4-[5-(1-methyl-1H-indol-5-yl)-pyridin-3-yl]-[1,8]naphthyridine] | 6.00 to 7.00 | > 7.00 |
| Fc1ccc(Cl)cc1-c1cc(-c2cncc(-c3ccc4c(c3)NCCC4)c2)c2cccnc2n1 [compound 151, 2-(5-Chloro-2-fluoro-phenyl)-4-[5-(1,2,3,4-tetrahydro-quinolin-7-yl)-pyridin-3-yl]-[1,8]naphthyridine] | 6.00 to 7.00 | > 7.00 |
| NCCc1ccccc1-c1cncc(-c2cc(-c3cc(Cl)ccc3F)nc3ncccc23)c1 [compound 152, 2-(2-{5-[2-(5-Chloro-2-fluoro-phenyl)-[1,8]naphthyridin-4-yl]-pyridin-3-yl}-phenyl)-ethylamine] | 5.00 to 6.00 | 5.00 to 6.00 |
| Fc1ccc(Cl)cc1-c1cc(-c2cncc(-c3ccc(CCN4CCOCC4)cc3)c2)c2cccnc2n1 [compound 153, 2-(5-Chloro-2-fluoro-phenyl)-4-{5-[4-(2-morpholin-4-yl-ethyl)-phenyl]-pyridin-3-yl}-[1,8]naphthyridine] | > 7.00 | > 7.00 |
| Fc1ccc(Cl)cc1-c1cc(-c2cncc(-c3ccc4c(c3)CCN4)c2)c2cccnc2n1 [compound 154, 2-(5-Chloro-2-fluoro-phenyl)-4-[5-(2,3-dihydro-1H-indol-5-yl)-pyridin-3-yl]-[1,8]naphthyridine] | 6.00 to 7.00 | 5.00 to 6.00 |
| Fc1ccc(Cl)cc1-c1cc(-c2cncc(-c3ccc4c(c3)CCNC4)c2)c2cccnc2n1 [compound 155, 2-(5-Chloro-2-fluoro-phenyl)-4-[5-(1,2,3,4-tetrahydro-isoquinolin-6-yl)-pyridin-3-yl]-[1,8]naphthyridine] | > 7.00 | > 7.00 |
| Fc1ccc(Cl)cc1-c1cc(-c2cncc(-c3ccc(OCCN4CCCC4)cc3)c2)c2cccnc2n1 [compound 156, 2-(5-Chloro-2-fluoro-phenyl)-4-{5-[4-(2-pyrrolidin-1-yl-ethoxy)-phenyl]-pyridin-3-yl}-[1,8]naphthyridine] | > 7.00 | > 7.00 |
| CC1(C)CC(=O)Nc2ccc(-c3cncc(-c4cc(-c5cc(Cl)ccc5F)nc5ncccc45)c3)cc21 [compound 157, 6-{5-[2-(5-Chloro-2-fluoro-phenyl)-[1,8]naphthyridin-4-yl]-pyridin-3-yl}-4,4-dimethyl-3,4-dihydro-1H-quinolin-2-one] | 6.00 to 7.00 | 6.00 to 7.00 |
| Fc1ccc(Cl)cc1-c1cc(-c2cncc(-c3cccc(OCCN4CCCC4)c3)c2)c2cccnc2n1 [compound 158, 2-(5-Chloro-2-fluoro-phenyl)-4-{5-[3-(2-pyrrolidin-1-yl-ethoxy)-phenyl]-pyridin-3-yl}-[1,8]naphthyridine] | > 7.00 | > 7.00 |
| Fc1ccc(Cl)cc1-c1cc(-c2cncc(-c3cccc(C4CCNCC4)c3)c2)c2cccnc2n1 [compound 159, 2-(5-Chloro-2-fluoro-phenyl)-4-[5-(3-piperidin-4-yl-phenyl)-pyridin-3-yl]-[1,8]naphthyridine] | > 7.00 | 6.00 to 7.00 |
| N#Cc1cccc(-c2cncc(-c3cc(-c4cc(Cl)ccc4F)nc4ncccc34)c2)n1 [compound 160, 5′-[2-(5-Chloro-2-fluoro-phenyl)-[1,8]naphthyridin-4-yl]-[2,3′]bipyridinyl-6-carbonitrile] | < 5.00 | < 5.00 |
| Fc1ccc(Cl)cc1-c1cc(-c2cncc(-c3ccc(OCCN4CCOCC4)cc3)c2)c2cccnc2n1 [compound 161, 2-(5-Chloro-2-fluoro-phenyl)-4-{5-[4-(2-morpholin-4-yl-ethoxy)-phenyl]-pyridin-3-yl}-[1,8]naphthyridine] | > 7.00 | > 7.00 |
| CN(C)CCc1ccc(-c2cncc(-c3cc(-c4cc(Cl)ccc4F)nc4ncccc34)c2)cc1 [compound 162, [2-(4-{5-[2-(5-Chloro-2-fluoro-phenyl)-[1,8]naphthyridin-4-yl]-pyridin-3-yl}-phenyl)-ethyl]-dimethyl-amine] | > 7.00 | > 7.00 |
| CN1CCc2ccc(-c3cncc(-c4cc(-c5cc(Cl)ccc5F)nc5ncccc45)c3)cc2C1 [compound 163, 2-(5-Chloro-2-fluoro-phenyl)-4-[5-(2-methyl-1,2,3,4-tetrahydro-isoquinolin-7-yl)-pyridin-3-yl]-[1,8]naphthyridine] | > 7.00 | > 7.00 |
| CC(=O)N1CCc2cc(-c3cncc(-c4cc(-c5cc(Cl)ccc5F)nc5ncccc45)c3)ccc21 [compound 164, 1-(5-{5-[2-(5-Chloro-2-fluoro-phenyl)-[1,8]naphthyridin-4-yl]-pyridin-3-yl}-2,3-dihydro-indol-1-yl)-ethanone] | > 7.00 | > 7.00 |
| O=C1CCc2cc(-c3cncc(-c4cc(-c5cc(Cl)ccc5F)nc5ncccc45)c3)cnc2N1 [compound 165, 6-{5-[2-(5-Chloro-2-fluoro-phenyl)-[1,8]naphthyridin-4-yl]-pyridin-3-yl}-3,4-dihydro-1H-[1,8]naphthyridin-2-one] | > 7.00 | > 7.00 |
| NCCc1cccc(-c2cncc(-c3cc(-c4cc(Cl)ccc4F)nc4ncccc34)c2)c1 [compound 166, 2-(3-{5-[2-(5-Chloro-2-fluoro-phenyl)-[1,8]naphthyridin-4-yl]-pyridin-3-yl}-phenyl)-ethylamine] | > 7.00 | > 7.00 |
| Nc1ncc(-c2cc(-c3cc(Cl)ccc3F)nc3ncccc23)c2ccncc12 [compound 167, 4-[2-(5-Chloro-2-fluoro-phenyl)-[1,8]naphthyridin-4-yl]-[2,7]naphthyridin-1-ylamine] | > 7.00 | > 7.00 |
| Fc1ccc(Cl)cc1-c1cc(-c2cncc(-c3cccc4c3CCNC4)c2)c2cccnc2n1 [compound 168, 2-(5-Chloro-2-fluoro-phenyl)-4-[5-(1,2,3,4-tetrahydro-isoquinolin-5-yl)-pyridin-3-yl]-[1,8]naphthyridine] | 5.00 to 6.00 | 5.00 to 6.00 |
| Nc1ccc(-c2cncc(-c3cc(-c4cc(Cl)ccc4F)nc4ncccc34)c2)cn1 [compound 169, 5′-[2-(5-Chloro-2-fluoro-phenyl)-[1,8]naphthyridin-4-yl]-[3,3′]bipyridinyl-6-ylamine] | > 7.00 | 6.00 to 7.00 |
| OCCN(CCO)c1cccc(-c2cncc(-c3cc(-c4cc(Cl)ccc4F)nc4ncccc34)c2)n1 [compound 170, 2-[{5′-[2-(5-Chloro-2-fluoro-phenyl)-[1,8]naphthyridin-4-yl]-[2,3′]bipyridinyl-6-yl}-(2-hydroxy-ethyl)amino]-ethanol] | > 7.00 | 6.00 to 7.00 |
| CN1CCN(c2cncc(-c3cncc(-c4cc(-c5cc(Cl)ccc5F)nc5ncccc45)c3)c2)CC1 [compound 171, 2-(5-Chloro-2-fluoro-phenyl)-4-[5′-(4-methyl-piperazin-1-yl)-[3,3′]bipyridinyl-5 yl]-[1,8]naphthyridine] | > 7.00 | > 7.00 |
| Fc1ccc(Cl)cc1-c1cc(-c2cncc(-c3ccc(CCN4CCCC4)cc3)c2)c2cccnc2n1 [compound 172, 2-(5-Chloro-2-fluoro-phenyl)-4-{5-[4-(2-pyrrolidin-1-yl-ethyl)-phenyl]-pyridin-3-yl}-[1,8]naphthyridine] | > 7.00 | > 7.00 |
